This passage reports VR, MCC and EC50 results from patent US5153352A, “Process for preparation of intermediates of carbocyclic nucleoside analogs” (priority 1990, dated 1992).

The test system of data set [1] is Human Immunodeficiency Virus (HIV). As to the kind of experiment: HIV CPE inhibition assay in ATH8 cells. It counts as cell-based. Here is the method:
(§1) The ATH8 human T-cell line expresses high levels of the CD4 surface antigen and is quite sensitive to the cytopathogenic effect (CPE) of HIV. The cells were propagated in RPMI 1640 medium supplemented with 4mM glutamine, 15% heat-inactivated fetal bovine serum (Biocell), antibiotics (50 units of penicillin and […] of streptomycin per ml), and 50 units of recombinant-derived human interleukin-2 (ala-125; AMGen Biologicals) per ml.
The clone H9 cell line is another CD4^+ human T-cell line which is permissive for HIV replication but largely resistant to virus induced CPE. H9 cells productively infected with the HTLV IIIB strain of HIV served as the source of infectious virus. These cells were propagated in RPMI 1640 medium supplemented with glutamine and antibiotics as described above, and with 20% heat-inactivated fetal bovine serum. Freshly harvested, undiluted culture supernatant from the H9/HTLV-IIIB producer cells was used for infectious virus inoculum.
The screening of compounds for antiviral activity was performed using a modification of the CPE inhibition assay originally developed by Broder and co workers. This assay is based on the ability of uninfected ATH8 cells to grow and form a pellet at the bottom of a culture tube. Starting about 4 days after HIV addition, infected ATH8 cells begin to die and the pellet starts to break up. By day 10 a clear differential is observable in the size of the cell pellet in uninfected control wells versus infected control wells. The protective effect of test compounds can be assessed by adding them at varying concentrations to the cultured cells at the time of virus infection, then monitoring the status of the cell pellet.
(§2) ATH8 cells were used as the primary target in the HIV induced CPE inhibition assay. Cells were treated with polybrene (2 ug/ml in growth medium) for 30 minutes at 37° C., then collected by gentle centrifugation (40×g for 15 minutes at room temperature) and resuspended in clarified (8000×g for 15 minutes at 4° C.) supernate freshly harvested from 48 hours post passage H9/HTL IIIB cells. Following a 60-minute adsorption period at 37° C., the cells were dispensed into the U-bottom wells of 96-well trays (1×10^4 cells in 0.1 ml per well). An equal volume (0.1 ml) of supplemented RPMI 1640 medium containing test compound and twice the normal concentration of interleukin-2 was then added to each well. Test compounds were evaluated at seven half-log dilutions ranging from 100 uq/ml to 0.1 uq/ml. […]
(§3) Between 7 and 10 days post infection, all wells were visually monitored for the degree of CPE inhibition as reflected by cell pellet size, and aliquots were taken from selected wells for determination of cell number and viability (based on trypan blue dye exclusion).

A short description of data set [2]: compound cytotoxicity in ATH8 cells (HIV CPE inhibition assay). It counts as cell-based. The settings on record: human, read-out: MTC. Here is the method: as §1
as §2, with “An equal volume (0.1 ml) of supplemented RPMI 1640 medium containing test compound and twice the normal concentration of interleukin-2 was then added to each well.” left out
as §3

In data set [3] the test system is HSV-1(E-377). Description: plaque reduction, HSV-1(E-377) in Vero cells. The settings on record: Human alphaherpesvirus 1, plaque reduction 50%, read-out: MIC50. It counts as cell-based, Herpes simplex virus type 1. Here is the method: (§4) After the adsorption period, the infected cell monolayers were treated in duplicate with serial dilutions of the test compound. Duplicate cell controls containing medium alone and virus controls containing medium and virus were run simultaneously with the test compound. […] Plaques visible to the unaided eye were counted and the mean number of plaques in the duplicate wells for each compound concentration tested and for the untreated, virus infected controls were determined.

Data set [4] has as its system HSV-1(123). Description: plaque reduction, HSV-1(123) in Vero cells. The format is cell-based, Herpes simplex virus type 1. The settings on record: Human alphaherpesvirus 1, plaque reduction 50%, read-out: MIC50. Here is the method: as §4
The subject of data set [5] is HSV-2. Description: plaque reduction, HSV-2 in Vero cells. It counts as cell-based, Herpes simplex virus type 2. The settings on record: Human alphaherpesvirus 2; HSV-2, Vero, plaque reduction 50%; read-out: MIC50. As to the method: as §4

Molecules are shown by their SMILES. Converted amounts (≈) assume the structure as drawn.

`OCC1CC(n2cnc3c(Cl)ncnc32)C1CO` (centres unmarked) [Example 4B, 3-(6'-chloro-9'H-purin-9'-yl)-1,2-bis(hydroxymethyl)cyclobutane]: in data set [1], the VR is 1.1. Also, in data set [2], the MCC turned out to be 10 µg/mL.

As for `Nc1nc2c(ncn2C2CC(CO)C2O)c(=O)[nH]1` (centres unmarked) [Example 42P, 9-(2'-hydroxy-3'-hydroxymethyl-1'-cyclobutyl)guanine], the EC50 in data set [3] was found to be 1 µg/mL (≈ 3.98 µM); in data set [4] it was 3 µg/mL (≈ 11.9 µM); in data set [5], 1 µg/mL (≈ 3.98 µM).
